Experimental data from ChEMBL document CHEMBL4834403, “Design and Synthesis of Novel Epigenetic Inhibitors Targeting Histone Deacetylases, DNA Methyltransferase 1, and Lysine Methyltransferase G9a with In Vivo Efficacy in Multiple Myeloma” (J Med Chem, 2021).

Molecular target: T1, Histone-lysine N-methyltransferase EHMT2 (Mus musculus, UniProt Q9Z148)
T1 sequence (Q9Z148 whole entry): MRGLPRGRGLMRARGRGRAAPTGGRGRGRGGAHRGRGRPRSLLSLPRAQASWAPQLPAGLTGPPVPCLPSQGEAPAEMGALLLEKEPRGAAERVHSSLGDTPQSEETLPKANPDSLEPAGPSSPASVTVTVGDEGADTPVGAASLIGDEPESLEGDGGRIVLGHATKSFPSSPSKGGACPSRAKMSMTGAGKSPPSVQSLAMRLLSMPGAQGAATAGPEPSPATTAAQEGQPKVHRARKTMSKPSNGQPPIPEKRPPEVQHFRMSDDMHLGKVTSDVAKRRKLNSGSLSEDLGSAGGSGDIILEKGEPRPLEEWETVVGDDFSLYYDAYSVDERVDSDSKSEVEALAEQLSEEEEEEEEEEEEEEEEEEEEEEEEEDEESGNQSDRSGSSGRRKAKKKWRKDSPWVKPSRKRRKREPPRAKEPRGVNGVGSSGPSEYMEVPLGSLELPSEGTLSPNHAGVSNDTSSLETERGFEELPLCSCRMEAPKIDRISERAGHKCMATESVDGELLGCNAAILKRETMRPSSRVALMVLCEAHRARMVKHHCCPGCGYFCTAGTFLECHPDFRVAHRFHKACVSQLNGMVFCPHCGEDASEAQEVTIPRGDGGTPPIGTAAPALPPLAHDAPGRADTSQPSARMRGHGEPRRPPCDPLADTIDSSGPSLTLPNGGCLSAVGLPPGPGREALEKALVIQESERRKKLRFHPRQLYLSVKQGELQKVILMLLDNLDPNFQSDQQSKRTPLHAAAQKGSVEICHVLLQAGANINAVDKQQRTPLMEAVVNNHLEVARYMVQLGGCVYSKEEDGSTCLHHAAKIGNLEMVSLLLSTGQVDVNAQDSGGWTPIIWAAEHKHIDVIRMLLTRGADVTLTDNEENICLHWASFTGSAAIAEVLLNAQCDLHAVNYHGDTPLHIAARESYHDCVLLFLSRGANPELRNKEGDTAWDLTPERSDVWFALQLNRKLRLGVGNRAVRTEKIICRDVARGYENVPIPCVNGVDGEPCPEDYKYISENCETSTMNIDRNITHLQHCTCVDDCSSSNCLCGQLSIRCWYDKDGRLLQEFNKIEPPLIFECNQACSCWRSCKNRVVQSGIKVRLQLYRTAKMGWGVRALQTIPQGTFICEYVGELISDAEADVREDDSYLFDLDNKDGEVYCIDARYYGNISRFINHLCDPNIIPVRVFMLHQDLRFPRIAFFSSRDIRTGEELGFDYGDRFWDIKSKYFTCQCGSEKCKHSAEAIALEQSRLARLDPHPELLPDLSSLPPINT
Assay: Inhibition of mouse thymus 6His-sumo-tagged G9a (969 to 1263 residues) expressed in Escherichia coli BL21 (DE3) using histone H3 as substrate incubated for 30 mins by MALDI-TOF-MS analysis

With `COc1ccc2c(NC3CCN(Cc4ccccc4)CC3)nc(NCCNC(=O)CCCCCC(=O)NO)nc2c1` the IC50 was 7.14 µM.
